Measurements reported in US10538482B2, “Adamantane and memantine derivatives as peripheral NMDA receptor antagonists” (Institut National de la Santé et de la Recherche Médicale …, priority 2015, dated 2020).
Several values for one entry are separate records, joined by “and”; a condition that tells them apart may be missing. Equal values may be shown once. Read-outs that look alike come from different tables or passages of the source. Each block holds one molecule with its values, some of them ahead of it.

Experiments:
[1] = In vivo brain penetration measurement in rat (plasma and brain concentration, Kp"brain"); conditions: for Brain concentration / Plasma concentration / concentration at 3.75 h: male Sprague-Dawley rat, end of 3.75 h constant-rate i.v. infusion; for Brain concentration / Plasma concentration / concentration at 3.75 h / Kp at 3.75 h / Kp"brain" (total brain/plasma concentration ratio at steady state): 4 mg/kg; for concentration at 3.75 h / Kp at 3.75 h: male, Sprague-Dawley, iv; for Kp at 3.75 h: brain/plasma; for Kp at 3.75 h / Kp"brain" (total brain/plasma concentration ratio at steady state): 3.75 h i.v. infusion
Method: The femoral vein of male Sprague-Dawley rats (CRL) weighing around 250 g was surgically catheterized at least 72 hours prior to the experiment. The drug was administered as 3.75 h constant-rate intravenous infusion to approach steady state, using a flow rate of 0.8 mL/h, corresponding to dosage of 4 mg/kg (1.067 mg/kg/h, i.e. 1 mg/rat of ˜250 g). The vehicle used was saline.
At the end of the infusion, the rats were anesthetized by inhalation of isoflurane, and blood was collected in a heparinized tube from the abdominal aorta, followed by immediate rinsing of the bloodstream for 2 minutes with saline at a rate of 15 mL/min using a peristaltic pump and left intraventricle cannula (flowing via right atrium). The brain (without cerebellum) was removed, and transferred in a tube and homogenized in two volumes of deionized water using a tissue homogenizer (Precellys24). All samples were stored at −20° C. until analysis. Plasma and brain homogenate sample preparation was performed using solid phase extraction on OASIS® WCX (Waters) and compounds were quantified by reversed phase liquid chromatography and positive electrospray ionization and multiple reaction monitoring mass spectrometry (LC-MS/MS).
This parameter is defined as the ratio of concentrations in brain and blood, Kp“brain” (Cbrain/Cplasma) or log(BB). Log(BB) is the logarithm of the ratio of the steady-state total concentration of a compound in the brain to that in the blood/plasma, log(BB)=log(Cbrain/Cplasma). This parameter depends upon the passive diffusion characteristics, the implication of membrane transporters at the BBB level and the relative drug binding affinity differences between the plasma proteins and brain tissue. Generally, compounds with a brain/plasma ratio of greater than 0.3-0.5 are considered to have sufficient access to the CNS, compounds with a value greater than 1 freely cross the BBB, whereas compounds with a brain/plasma ratio smaller than 0.1 may be unable to enter the CNS.
Thus, the brain penetration of memantine and Compound N^o1 was measured in rat by establishing the brain/plasma ratio, Kp“brain” in triplicate (3 rats/Compound). The three tables below (Tables 1-3) show the results on plasma concentration, brain concentration and calculation of the Kp“brain” for the two compounds memantine and Compound N^° 1.

NMDAR = NMDAR blocking activity, whole-cell voltage clamp (patch-clamp) recordings from rat hippocampal neurons; assay type: cell-based; conditions: read-out: IC50 (NMDAR antagonist activity)
[2] = rat, brain, mean of 3 rats, read-out: Brain concentration, Mean
[3] = rat, rat, mean of 3 rats, read-out: Kp"brain", Mean
[4] = rat, plasma, individual rats, read-out: Plasma concentration
[5] = rat, plasma, mean of 3 rats, read-out: Plasma concentration, Mean
[6] = rat hippocampal neurons, -60 mV, currents evoked by 100 μM NMDA and 20 μM D-serine

Compound: CC12CC3CC(C)(C1)CC([N+](C)(C)C)(C3)C2 [Compound No1, N,N,N,3,5-Pentamethyladamantan-1-ammonium iodide]
- Brain concentration ([1]; individual rats): 0.90 ng/g and 3.57 ng/g and 3.03 ng/g
- Plasma concentration ([1]; individual rats): 23.11 ng/mL and 24.52 ng/mL
- concentration at 3.75 h [1, 2]: 2.5 ng/g
- Kp at 3.75 h [1, 3]: 0.091
- concentration at 3.75 h [1, 4]: 34.8 ng/mL
- concentration at 3.75 h [1, 5]: 27.5 ng/mL
- Kp"brain" (total brain/plasma concentration ratio at steady state) ([1]; rat, individual rats): 0.15 and 0.09 and 0.04
- IC50 (NMDAR; [6]): 9.9 µM

Compound: CC[N+](C)(C)C12CC3CC(C)(CC(C)(C3)C1)C2 [Compound No2, N-Ethyl-N,N-3,5-tetramethyladamantan-1-ammonium iodide]
- IC50 (NMDAR; [6]): 18 µM

Compound: CCC[N+](C)(C)C12CC3CC(C)(CC(C)(C3)C1)C2 [Compound No3, N-Propyl-N,N-3,5-tetramethyladamantan-1-ammonium iodide]
- IC50 (NMDAR; [6]): 29 µM

Compound: CC12CC3CC(C)(C1)CC(N)(C3)C2 [Memantine, memantine]
- Brain concentration ([1]; individual rats): 2977 ng/g and 3237 ng/g
- Plasma concentration ([1]; individual rats): 88.69 ng/mL and 94.85 ng/mL
- concentration at 3.75 h ([1]; rat, brain, individual rats, read-out: Brain concentration): 3340 ng/g
- concentration at 3.75 h [1, 2]: 3180 ng/g
- Kp at 3.75 h ([1]; rat, rat, individual rats, read-out: Kp"brain" (total brain/plasma concentration ratio at steady state)): 27.1
- Kp at 3.75 h [1, 3]: 31.6
- concentration at 3.75 h [1, 4]: 123 ng/mL
- concentration at 3.75 h [1, 5]: 102 ng/mL
- Penetration of the BBB / CNS (in words) ([1]; rat): penetrates freely across the BBB
- Kp"brain" (total brain/plasma concentration ratio at steady state) ([1]; rat, individual rats): 33.57 and 34.13
- IC50 (NMDAR): 1 µM

Compound: CCCC[N+](C)(C)C12CC3CC(C)(CC(C)(C3)C1)C2 [Compound No4, N-Butyl-N,N-3,5-tetramethyladamantan-1-ammonium iodide]
- IC50 (NMDAR; [6]): 110 µM

Compound: CC12CC3CC(C)(C1)CC([N+](C)(C)C)(C3)C2 [Compound No1′]
- IC50 (NMDAR; rat hippocampal neurons, -60 mV, currents evoked by 100 μM NMDA and 20 μM D-serine, listed as Compound N^o1′): ~10 µM
- IC50 (NMDAR; [6]): 11.6 µM

Other lines, results leading:

- IC50 (NMDAR; [6]): 3.5 µM
Compound: CC12CC3CC(C)(C1)CC([N+](C)(C)CC1CC1)(C3)C2 [Compound No8, N-(Cyclopropylmethyl)-N,N-3,5-tetramethyladamantan-1-ammonium iodide]

- IC50 (NMDAR; [6]): 35.2 µM
Compound: CC12CC3CC(C)(C1)CC([N+](C)(C)CC1CCCCC1)(C3)C2 [Compound No9, N-(Cyclohexylmethyl)-N,N-3,5-tetramethyladamantan-1-ammonium iodide]

- IC50 (NMDAR; [6]): 14.3 µM
Compound: CC(C)CC[N+](C)(C)C12CC3CC(C)(CC(C)(C3)C1)C2 [Compound No6, N-isoPentyl-N,N-3-5-tetramethyladamantan-1-ammonium iodide]
